From US3950352A, “2,2-Dimethyl-3R-carboxy-6S-phenyl(or phenoxy)acetamido-1-oxa-4-aza-5R-bicyclo[3,2,0]heptan-7-one and processes for their production” (Queen's University, priority 1974, dated 1976)

Experiment: antibacterial activity (organism not stated)
Type: cell-based
Settings: at levels of 250 mcg./ml.
Excerpt: After overnight development in a system containing n-butanol 60:acetic acid:15: water 25, the strips were air dried and one set was sprayed with Riker penicillinase. Both sets were then subjected to bioautography on B. subtilis.

In the case of `CC(C)=C(C(=O)O)N1C(=O)[C@H]2N=C(Cc3ccccc3)O[C@H]21` [oxazoline carboxylic acid, 2-benzyl-6-(1'-carboxy-2'-methylprop-1'-enyl)-1-oxa-3,6-diaza-4S,5R-bicyclo [3,2,0] hept-2-en-7-one], the antibacterial activity is reported as “inactive”.
